ChEMBL document CHEMBL3044808, “Laboratory and field comparisons of insecticides to reduce infestation of Drosophila suzukii in berry crops” (2011)
Active and inactive are the calls of the source. No cut-off for these calls is given here.

How the values were obtained:
Drosophila suzukii [1] = assay: Insecticidal activity against Drosophila suzukii assessed as male mortality at 112.3 g/ha by direct application at 22 degC measured after 24 hr; format: functional, organism-based
Drosophila suzukii [2] = assay: Insecticidal activity against Drosophila suzukii assessed as mortality at 3.31 g/ha by direct application at 22 degC measured after 24 hr; format: functional, organism-based
Drosophila suzukii [3] = assay: Insecticidal activity against Drosophila suzukii assessed as male mortality at 41 g/ha by direct application at 22 degC measured after 24 hr; format: functional, organism-based
Drosophila suzukii [4] = assay: Insecticidal activity against Drosophila suzukii assessed as male mortality at 3.31 g/ha by direct application at 22 degC measured after 24 hr; format: functional, organism-based
Drosophila suzukii [5] = assay: Insecticidal activity against Drosophila suzukii assessed as male mortality at 2.3 g/ha by direct application at 22 degC measured after 24 hr; format: functional, organism-based
Drosophila suzukii [6] = assay: Insecticidal activity against Drosophila suzukii assessed as mortality at 2.3 g/ha by direct application at 22 degC measured after 24 hr; format: functional
Drosophila suzukii [7] = assay: Insecticidal activity against Drosophila suzukii assessed as mortality at 2.2 g/ha by direct application at 22 degC measured after 24 hr; format: functional
Drosophila suzukii [8] = assay: Insecticidal activity against Drosophila suzukii assessed as mortality at 70.2 g/ha by direct application at 22 degC measured after 24 hr; format: functional, organism-based
Drosophila suzukii [9] = assay: Insecticidal activity against Drosophila suzukii assessed as mortality at 112.3 g/ha by direct application at 22 degC measured after 24 hr; format: functional, organism-based
Drosophila suzukii [10] = assay: Insecticidal activity against Drosophila suzukii assessed as mortality at 1 g/ha by direct application at 22 degC measured after 24 hr; format: functional
Drosophila suzukii [11] = assay: Insecticidal activity against Drosophila suzukii assessed as mortality at 212.5 g/ha by direct application at 22 degC measured after 24 hr; format: functional, organism-based
Drosophila suzukii [12] = assay: Insecticidal activity against Drosophila suzukii assessed as mortality at 1.1 g/ha by direct application at 22 degC measured after 24 hr; format: functional
Drosophila suzukii [13] = assay: Insecticidal activity against Drosophila suzukii assessed as mortality at 112.2 g/ha by direct application at 22 degC measured after 24 hr; format: functional
Drosophila suzukii [14] = assay: Insecticidal activity against Drosophila suzukii assessed as mortality at 112.1 g/ha by direct application at 22 degC measured after 24 hr; format: functional
Drosophila suzukii [15] = assay: Insecticidal activity against Drosophila suzukii assessed as mortality at 41 g/ha by direct application at 22 degC measured after 24 hr; format: functional, organism-based
Drosophila suzukii [16] = assay: Insecticidal activity against Drosophila suzukii assessed as mortality at 62.3 g/ha by direct application at 22 degC measured after 24 hr; format: functional
Drosophila suzukii [17] = assay: Insecticidal activity against Drosophila suzukii assessed as mortality at 113.8 g/ha by direct application at 22 degC measured after 24 hr; format: functional, organism-based
Drosophila suzukii [18] = assay: Insecticidal activity against Drosophila suzukii assessed as mortality at 24 g/ha by direct application at 22 degC measured after 24 hr; format: functional
Drosophila suzukii [19] = assay: Insecticidal activity against Drosophila suzukii assessed as mortality at 223.9 g/ha by direct application at 22 degC measured after 24 hr; format: functional
Drosophila suzukii [20] = assay: Insecticidal activity against Drosophila suzukii assessed as mortality at 56.2 g/ha by direct application at 22 degC measured after 24 hr; format: functional
Drosophila suzukii [21] = assay: Insecticidal activity against Drosophila suzukii assessed as mortality at 341.5 g/ha by direct application at 22 degC measured after 24 hr; format: functional

Row | Compound | Activity (Drosophila suzukii [1]) | Activity (Drosophila suzukii [3]) | Activity (Drosophila suzukii [4]) | Activity (Drosophila suzukii [5]) | further results
1 | CC[C@H](C)[C@H]1O[C@]2(C=C[C@@H]1C)C[C@@H]1C[C@@H](C/C=C(\C)[C@@H](O[C@H]3C[C@H](OC)[C@@H](O[C@H]4C[C@H](OC)[C@@H](O)[C@H](C)O4)[C@H](C)O3)[C@@H](C)/C=C/C=C3\CO[C@@H]4[C@H](O)C(C)=C[C@@H](C(=O)O1)[C@]34O)O2.CO[C@H]1C[C@H](O[C@H]2[C@H](C)O[C@@H](O[C@@H]3/C(C)=C/C[C@@H]4C[C@@H](C[C@]5(C=C[C@H](C)[C@@H](C(C)C)O5)O4)OC(=O)[C@@H]4C=C(C)[C@@H](O)[C@H]5OC/C(=C\C=C\[C@@H]3C)[C@]54O)C[C@@H]2OC)O[C@@H](C)[C@@H]1O | Active | Active | Active | Active | Activity (Drosophila suzukii [2]): Active
2 | CCOC(=O)CC(SP(=S)(OC)OC)C(=O)OCC (stereo not drawn) [MALATHION] | – | – | – | – | mortality at 2.3 g/ha (Drosophila suzukii [6]): 100%; mortality at 2.2 g/ha (Drosophila suzukii [7]): 100%
3 | CN1COCN(Cc2cnc(Cl)s2)/C1=N\[N+](=O)[O-] | Active | Active | Active | Active | Activity (Drosophila suzukii [8]): Active
4 | C/C(=N\C#N)N(C)Cc1ccc(Cl)nc1 | Active | Active | Active | Active | Activity (Drosophila suzukii [9]): Active
5 | CNC(=O)ON=C(C)SC [METHOMYL] | – | – | – | – | mortality at 1 g/ha (Drosophila suzukii [10]): 100%
6 | CNC(=O)Oc1cccc2ccccc12 [CARBARIL] | Active | Active | Active | Active | mortality at 2.3 g/ha (Drosophila suzukii [6]): 100%
7 | O=C(NC(=O)c1c(F)cccc1F)Nc1ccc(OC(F)(F)C(F)OC(F)(F)F)c(Cl)c1 (stereo not drawn) | – | – | – | – | Activity (Drosophila suzukii [11]): Active
8 | CCOP(=S)(OCC)Oc1cc(C)nc(C(C)C)n1 [DIMPYLATE] | – | – | – | – | mortality at 1.1 g/ha (Drosophila suzukii [12]): 100%
9 | Cc1c(COC(=O)[C@@H]2[C@H](/C=C(\Cl)C(F)(F)F)C2(C)C)cccc1-c1ccccc1 (relative stereo) [BIFENTHRIN] | – | – | – | – | mortality at 112.2 g/ha (Drosophila suzukii [13]): 100%; mortality at 112.1 g/ha (Drosophila suzukii [14]): 100%
10 | O=S1OCC2C(CO1)C1(Cl)C(Cl)=C(Cl)C2(Cl)C1(Cl)Cl (stereo not drawn) | – | – | – | – | Activity (Drosophila suzukii [12]): Active
11 | C/C=C(\C)C(=O)O[C@H]1C[C@@H](OC(C)=O)[C@@]2(C(=O)OC)CO[C@H]3[C@@H](O)[C@@](C)([C@]45O[C@@]4(C)[C@@H]4C[C@H]5O[C@@H]5OC=C[C@@]54O)[C@H]4[C@]1(CO[C@]4(O)C(=O)OC)[C@@H]32 | Active | Active | Active | Active | Activity (Drosophila suzukii [15]): Active
12 | C=CCC1=C(C)C(OC(=O)C2C(C=C(C)C)C2(C)C)CC1=O (stereo not drawn) [Allethrin] | – | – | – | – | mortality at 62.3 g/ha (Drosophila suzukii [16]): 79%
13 | CNC(=O)c1cc(Cl)cc(C)c1NC(=O)c1cc(Br)nn1-c1ncccc1Cl | Active | Active | Active | Active | Activity (Drosophila suzukii [17]): Active
14 | CC1(C)C(C=C(Cl)Cl)C1C(=O)OC(C#N)c1ccc(F)c(Oc2ccccc2)c1 (stereo not drawn) [CYFLUTHRIN] | – | – | – | – | mortality at 24 g/ha (Drosophila suzukii [18]): 100%
15 | CC1(C)C(C=C(Cl)Cl)C1C(=O)OCc1cccc(Oc2ccccc2)c1 (stereo not drawn) [PERMETHRIN] | – | – | – | – | mortality at 223.9 g/ha (Drosophila suzukii [19]): 100%
16 | CC(C)[C@H](C(=O)O[C@H](C#N)c1cccc(Oc2ccccc2)c1)c1ccc(Cl)cc1 | – | – | – | – | mortality at 56.2 g/ha (Drosophila suzukii [20]): 100%
17 | CC1(C)C(C(=O)OC(C#N)c2cccc(Oc3ccccc3)c2)C1(C)C (stereo not drawn) [FENPROPATHRIN] | – | – | – | – | mortality at 341.5 g/ha (Drosophila suzukii [21]): 100%
